Assay results as given in patent US20050124562A1, “Bis-quinazoline compounds for the treatment of bacterial infections” (priority 2003, published 2005).
Converted amounts (≈) assume the structure as drawn.

The compounds below were run on S. aureus, E. faecalis, S. pyogenes and S. pneumoniae (assay: Broth microdilution MIC (NCCLS), gram-positive strains). Settings: not given.
Assay type: cell-based
Protocol: Representative bis-quinazolines were tested for antibacterial activity using the […] microdilution method to determine their minimum inhibitory concentrations (MICs). All compounds were tested using standard methods in accordance with NCCLS guidelines (National Committee for Clinical Laboratory Standards. 2003. Methods for dilution antimicrobial susceptibility testing for bacteria that grow aerobically. Approved Standard M-7 A-6, NCCLS, Wayne, Pa.). The bacterial strains used in the susceptibility tests were obtained from the American Type Culture Collection (ATCC) and included resistant phenotypes such as oxacillin-resistant S. aureus (ORSA) and vancomycin-resistant enterococci (VRE). The minimum bactericidal concentrations (MBCs) were determined for selected organisms. The effect of protein binding on the antibacterial activity of representative bis-quinazolines were determined by conducting MIC tests in the presence of human serum.

| Structure (SMILES) | MIC [µg/mL] |
| --- | --- |
| COc1cccc2c(O)nc(Nc3nc(C)c4ccc5c(c4n3)OCCO5)nc12 [Example 82, 8-Methoxy-2-(8-methyl-2,3-dihydro-1,4-dioxa-5,7-diaza-phenanthren-6-ylamino)-quinazolin-4-ol] | 0.06 to 16 (≈ 0.153 to 40.9 µM) |

Same assay, conditions: range against some strains of S. aureus, E. faecalis, S. pyogenes and S. pneumoniae; read-out: MIC

| Structure (SMILES) | MIC [µg/mL] |
| --- | --- |
| COc1cc(OC)c2nc(Nc3nc(O)c4cc(C)cc(C)c4n3)nc(C)c2c1.O=C(O)C(F)(F)F [Example 75, 2-(6,8-Dimethoxy-4-methyl-quinazolin-2-ylamino)-6,8-dimethyl-quinazolin-4-ol trifluoroacetate salt] | 0.06 to 16 |
| COc1cc2c(C)nc(Nc3nc(O)c4cccc(OC)c4n3)nc2cc1N.O=C(O)C(F)(F)F [Example 76, 2-(6-methoxy-7-amino-4-methyl-quinazolin-2-ylamino)-8-methoxy-quinazolin-4-ol trifluoroacetate salt] | 0.06 to 16 |
| COc1ccc2c(C)nc(Nc3nc(O)c4cccc(OC)c4n3)nc2c1OC.O=C(O)C(F)(F)F [Example 78, 2-(7,8-Dimethoxy-4-methyl-quinazolin-2-ylamino)-8-methoxy-quinazolin-4-ol trifluoroacetate salt] | 0.06 to 16 |
| COCCOc1cc(OC)cc2c(C)nc(Nc3nc(O)c4cccc(OC)c4n3)nc12.O=C(O)C(F)(F)F [Example 79, 8-Methoxy-2-[6-methoxy-8-(2-methoxy-ethoxy)-4-methyl-quinazolin-2-ylamino]-quinazolin-4-ol trifluoroacetate salt] | 0.06 to 16 |
| COCCOc1ccc2nc(Nc3nc(O)c4cccc(OC)c4n3)nc(C)c2c1.O=C(O)C(F)(F)F [Example 80, 8-Methoxy-2-[6-(2-methoxy-ethoxy)-4-methyl-quinazolin-2-ylamino]-quinazolin-4-ol trifluoroacetate salt] | 0.06 to 16 |
| COCCOc1c(OC)ccc2c(C)nc(Nc3nc(O)c4cccc(OC)c4n3)nc12.O=C(O)C(F)(F)F [Example 81, 8-Methoxy-2-[7-methoxy-8-(2-methoxy-ethoxy)-4-methyl-quinazolin-2-ylamino]-quinazolin-4-ol trifluoroacetate salt] | 0.06 to 16 |
| COc1cc(OC)c2nc(Nc3nc(O)c4c(OC)ccc(OC)c4n3)nc(C)c2c1.O=C(O)C(F)(F)F [Example 100, 2-(6,8-Dimethoxy-4-methyl-quinazolin-2-ylamino)-5,8-dimethoxy-quinazolin-4-ol trifluoroacetate salt] | 0.06 to 16 |
| COc1cc2c(C)nc(Nc3nc(O)c4cccc(OC)c4n3)nc2cc1O.O=C(O)C(F)(F)F [Example 103, 2-(4-Hydroxy-8-methoxy-quinazolin-2-ylamino)-6-methoxy-4-methyl-quinazolin-7-ol trifluoroacetate salt] | 0.06 to 16 |
| COc1cc2nc(Nc3nc(O)c4cc(OCCCl)ccc4n3)nc(C)c2cc1OC.O=C(O)C(F)(F)F [Example 105, 6-(2-Chloro-ethoxy)-2-(6,7-dimethoxy-4-methyl-quinazolin-2-ylamino)-quinazolin-4-ol trifluoroacetate salt] | 0.06 to 16 |
| COc1cc(OC)c2nc(Nc3nc(O)c4cc(OCCCl)ccc4n3)nc(C)c2c1.O=C(O)C(F)(F)F [Example 107, 6-(2-Chloro-ethoxy)-2-(6,8-dimethoxy-4-methyl-quinazolin-2-ylamino)-quinazolin-4-ol trifluoroacetate salt] | 0.06 to 16 |
| COc1cc2nc(Nc3nc(O)c4c5c(ccc4n3)OCO5)nc(C)c2cc1OC.O=C(O)C(F)(F)F [Example 109, 7-(6,7-Dimethoxy-4-methyl-quinazolin-2-ylamino)-1,3-dioxa-6,8-diaza-cyclopenta[a]naphthalen-9-ol trifluoroacetate salt] | 0.06 to 16 |
| COc1cc(OC)c2nc(Nc3nc(O)c4c(OC(C)C)cccc4n3)nc(C)c2c1.O=C(O)C(F)(F)F [Example 111, 2-(6,8-Dimethoxy-4-methyl-quinazolin-2-ylamino)-5-isopropoxy-quinazolin-4-ol trifluoroacetate salt] | 0.06 to 16 |
| CCOc1cccc2nc(Nc3nc(C)c4cc(OC)cc(OC)c4n3)nc(O)c12.O=C(O)C(F)(F)F [Example 112, 2-(6,8-Dimethoxy-4-methyl-quinazolin-2-ylamino)-5-ethoxy-quinazolin-4-ol trifluoroacetate salt] | 0.06 to 16 |
| COc1cc2nc(Nc3nc(O)c4cc(N5CCOCC5)ccc4n3)nc(C)c2cc1OC.O=C(O)C(F)(F)F [Example 114, 2-(6,7-Dimethoxy-4-methyl-quinazolin-2-ylamino)-6-morpholin-4-yl-quinazolin-4-ol trifluoroacetate salt] | 0.06 to 16 |
| COc1cc2c(C)nc(Nc3nc(O)c4cccc(OC)c4n3)nc2c(OC)c1OC.O=C(O)C(F)(F)F [Example 116, 8-Methoxy-2-(6,7,8-trimethoxy-4-methyl-quinazolin-2-ylamino)-quinazolin-4-ol trifluoroacetate salt] | 0.06 to 16 |
| COc1cccc2c(O)nc(Nc3nc(C)c4ccc(F)c(OC)c4n3)nc12.O=C(O)C(F)(F)F [Example 117, 2-(7-Fluoro-8-methoxy-4-methyl-quinazolin-2-ylamino)-8-methoxy-quinazolin-4-ol trifluoroacetate salt] | 0.06 to 16 |

| Structure (SMILES) | MIC [µg/mL] |
| --- | --- |
| COc1cc2c(C)nc(Nc3nc(O)c4cccc(F)c4n3)nc2c(OC)c1OC.O=C(O)C(F)(F)F [Example 118, 8-Fluoro-2-(6,7,8-trimethoxy-4-methyl-quinazolin-2-ylamino)-quinazolin-4-ol trifluoroacetate salt] | 0.06 to 16 |
| COc1c(F)ccc2c(C)nc(Nc3nc(O)c4cccc(F)c4n3)nc12.O=C(O)C(F)(F)F [Example 119, 8-Fluoro-2-(7-fluoro-8-methoxy-4-methyl-quinazolin-2-ylamino)-quinazolin-4-ol trifluoroacetate salt] | 0.06 to 16 |
| COc1ccc2nc(Nc3nc(O)c4cc(N)cc(OC)c4n3)nc(C)c2c1.O=C(O)C(F)(F)F [Example 123, 6-Amino-2-(6-methoxy-4-methyl-quinazolin-2-ylamino)-8-methoxy-quinazolin-4-ol trifluoroacetate salt] | 0.06 to 16 |
| COc1cc(OC)c2nc(Nc3nc(O)c4cc(N)cc(OC)c4n3)nc(C)c2c1.O=C(O)C(F)(F)F [Example 124, 6-Amino-2-(6,8-dimethoxy-4-methyl-quinazolin-2-ylamino)-8-methoxy-quinazolin-4-ol trifluoroacetate salt] | 0.06 to 16 |
| COc1cc(OC)c2nc(Nc3nc(O)c4cc(N)cc(C)c4n3)nc(C)c2c1.O=C(O)C(F)(F)F [Example 126, 6-Amino-2-(6,8-dimethoxy-4-methyl-quinazolin-2-ylamino)-8-methyl-quinazolin-4-ol trifluoroacetate salt] | 0.06 to 16 |
| COc1cc2c(C)nc(Nc3nc(O)c4cccc(OC)c4n3)nc2cc1N(C)C.O=C(O)C(F)(F)F [Example 127, 2-(7-Dimethylamino-6-methoxy-4-methyl-quinazolin-2-ylamino)-8-methoxy-quinazolin-4-ol trifluoroacetate salt] | 0.06 to 16 |
| COc1cc2nc(Nc3nc(O)c4c(N(C)C)cccc4n3)nc(C)c2cc1OC.O=C(O)C(F)(F)F [Example 128, 2-(6,7-Dimethoxy-4-methyl-quinazolin-2-ylamino)-5-dimethylamino-quinazolin-4-ol trifluoroacetate salt] | 0.06 to 16 |
| COc1cc(OC)c2nc(Nc3nc(O)c4c5c(ccc4n3)OCO5)nc(C)c2c1.O=C(O)C(F)(F)F [Example 130, 7-(6,8-Dimethoxy-4-methyl-quinazolin-2-ylamino)-1,3-dioxa-6,8-diaza-cyclopenta[a]naphthalen-9-ol trifluoroacetate salt] | 0.06 to 16 |
| COc1cc(OC)c2nc(Nc3nc(O)c4c(OC)c(OC)ccc4n3)nc(C)c2c1.O=C(O)C(F)(F)F [Example 134, 2-(6,8-Dimethoxy-4-methyl-quinazolin-2-ylamino)-5,6-dimethoxy-quinazolin-4-ol TFA salt] | 0.06 to 16 |
| COc1cc(OC)c2nc(Nc3nc(O)c4c(OC)c(OC)ccc4n3)nc(C)c2c1.Cl [Example 135, 2-(6,8-Dimethoxy-4-methyl-quinazolin-2-ylamino)-5,6-dimethoxy-quinazolin-4-ol HCl salt] | 0.06 to 16 |
| COc1cc2nc(Nc3nc(O)c4cc(OCCO)ccc4n3)nc(C)c2cc1OC.O=C(O)C(F)(F)F [Example 136, 2-(6,7-Dimethoxy-4-methyl-quinazolin-2-ylamino)-6-(2-hydroxy-ethoxy)-quinazolin-4-ol trifluoroacetate salt] | 0.06 to 16 |
| COc1cc(OC)c2nc(Nc3nc(O)c4cc(OCCO)ccc4n3)nc(C)c2c1.O=C(O)C(F)(F)F [Example 137, 2-(6,8-Dimethoxy-4-methyl-quinazolin-2-ylamino)-6-(2-hydroxy-ethoxy)-quinazolin-4-ol trifluoroacetate salt] | 0.06 to 16 |
| COc1cc2nc(Nc3nc(O)c4cc(OCCN(C)CCO)ccc4n3)nc(C)c2cc1OC.O=C(O)C(F)(F)F [Example 139, 2-(6,7-Dimethoxy-4-methyl-quinazolin-2-ylamino)-6-{2-[(2-hydroxy-ethyl)-methyl-amino]-ethoxy}-quinazolin-4-ol trifluoroacetate salt] | 0.06 to 16 |
| COc1cc(OC)c2nc(Nc3nc(O)c4cc(OCCN5CCOCC5)ccc4n3)nc(C)c2c1.O=C(O)C(F)(F)F [Example 141, 2-(6,8-Dimethoxy-4-methyl-quinazolin-2-ylamino)-6-(2-morpholin-4-yl-ethoxy)-quinazolin-4-ol trifluoroacetate salt] | 0.06 to 16 |
| CCN(CCO)CCOc1ccc2nc(Nc3nc(C)c4cc(OC)cc(OC)c4n3)nc(O)c2c1.O=C(O)C(F)(F)F [Example 167, 2-(6,8-Dimethoxy-4-methyl-quinazolin-2-ylamino)-6-{2-[ethyl-(2-hydroxy-ethyl)-amino]-ethoxy}-quinazolin-4-ol trifluoroacetate salt] | 0.06 to 16 |
